Blank lines part the entries; values can stand above or below the compound they belong to.
Experiments:
[1] = biological target: thromboxane A2 receptor (TBXA2R) (Gα13) (Homo sapiens, UniProt P21731); assay: BRET² G protein dissociation assay, TBXA2R with Gα13; assay type: cell-based; conditions: for Mean (plotted), G protein dissociation BRET² signal: TBXA2R-G13, Fig. 5c source data
Protocol: (§1) G protein dissociation assays were performed according to the original protocols of the TRUPATH BRET² assay[47],[87] but with subtle modifications as previously described[61],[88],[89]. All reagents and cells were obtained from Thermo Fisher Scientific unless indicated otherwise. The coding sequences for the G protein biosensors[47] (Gα12-Rluc8, Gα13-Rluc8, wt Gβ3, and Gγ9-GFP), the wt GPR55, the construct used for cryo-EM (with GFP bearing a G67A mutation to disrupt fluorescence properties[48] for BRET² assays), GPR55 binding pocket mutants (G152^4.56F, G152^4.56W, N171^ECL2Q, N171^ECL2A, T176^5.33A, R253^6.62A), and the wt TBXA2R were codon-optimized for Homo sapiens, gene-synthesized, and sub-cloned into pcDNA^TM3.1(+) between NheI and HindIII restriction sites by GeneArt (Thermo Fisher Scientific). […] Freshly grown cells were washed with Dulbecco’s Balanced Salt Solution (DPBS, cat. #14200075) and detached using trypsin-ethylenediaminetetraacetic acid (trypsin-EDTA) (cat. #25300-062). Then, the cells were reconstituted to 500,000 cells per mL with fresh medium, and 1,000,000 cells were seeded into each well of a 6-well plate. After 3 h incubation at 37 °C and 5% CO2, adherent cells were transfected with 600 ng DNA (1:1:1:1 ratio of plasmid DNA for GPR55, wt Gβ3, Gγ9-GFP, and Gα12-Rluc8 or Gα13-Rluc8). Plasmid DNA was mixed with 1.5 µL Lipofectamine^TM 2000 (cat. #11668027) in Opti-MEM^TM medium (cat. #31985062) and incubated for 20 min. Then, the mixture was added to each well of the 6-well plate following 24 h incubation at 37 °C and 5% CO2. Transfected cells were washed with DPBS, detached using EDTA (Versene, cat. #15040066), and reconstituted into fresh medium at 500,000 cells mL^−1. From this suspension, 50,000 cells were seeded into each well of a white-bottom 96-well plate (Nunc^TM MicroWell^TM 96 wells, cat. #136101) following overnight incubation at 37 °C and 5% CO2. Then, the adherent cells were washed with assay medium [Hank’s balanced salt solution (HBSS, cat. #14065056) plus 20 mM HEPES pH 7.4 (cat. #15630056)] and finally reconstituted into 50 µL of the same medium. […] Methoxy e-Coelenterazine was used as luciferase substrate (Prolume Purple, NanoLight Technology, cat. #369), reconstituted at 1 mM in methanol and diluted to 37.5 µM with assay buffer (7.5 µM final assay concentration). The assay was started by the addition of 20 µL luciferase substrate to each well of the assay plate using a Multidrop^TM Combi reagent dispenser (Thermo Fisher Scientific), followed by 5 min incubation at room temperature. Then, 30 µL of agonist dilutions or DMSO control was added (final DMSO concentration 1.5%), followed by an additional 5 min incubation at room temperature.

wt GPR55 (Gα12) = wt GPR55 (Gα12) (Homo sapiens, UniProt Q9Y2T6); assay: BRET² G protein dissociation assay, wt GPR55 with Gα12; assay type: cell-based; conditions: for ΔBRET² ratio (Mean): GPR55-wt-G12
Description: Guided by structural insights, we employed the G protein dissociation assay to validate the G protein selectivity of GPR55. The sequences of Gα13 and Gα12 are highly similar (76% sequence similarity) and only seven Gα13 residues differ within a 4 Å sphere of the receptor- G protein interaction site (Fig. 5d). Therefore, we included Gα12 in our assays as a control since it was reported that 1-AG-PI-activated GPR55 signals exclusively via Gα13[10]. Herein, we observed robust G protein activation (concluded from a BRET² ratio decrease) when GPR55 was co-expressed with Gα13 (Fig. 5b), even without the addition of any ligand. (Fig. 2f and Supplementary Table S3). This observation is indicative of constitutive activity; however, it could also be explained by GPR55 interaction with cellular lipids that are ubiquitously present. […] (Fig. 5c).
as §1

Sequence of wt GPR55 (Gα12) (Q9Y2T6 whole entry): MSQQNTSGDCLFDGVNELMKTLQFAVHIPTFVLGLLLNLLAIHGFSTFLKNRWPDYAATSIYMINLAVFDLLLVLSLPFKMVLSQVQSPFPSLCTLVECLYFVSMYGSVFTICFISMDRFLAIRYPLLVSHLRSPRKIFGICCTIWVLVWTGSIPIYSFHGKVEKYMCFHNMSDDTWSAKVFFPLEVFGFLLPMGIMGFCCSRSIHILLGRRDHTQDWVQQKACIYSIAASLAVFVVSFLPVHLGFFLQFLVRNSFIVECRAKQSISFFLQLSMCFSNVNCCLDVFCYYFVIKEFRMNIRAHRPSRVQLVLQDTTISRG
Sequence of thromboxane A2 receptor (TBXA2R) (Gα13) (P21731 whole entry, species assumed): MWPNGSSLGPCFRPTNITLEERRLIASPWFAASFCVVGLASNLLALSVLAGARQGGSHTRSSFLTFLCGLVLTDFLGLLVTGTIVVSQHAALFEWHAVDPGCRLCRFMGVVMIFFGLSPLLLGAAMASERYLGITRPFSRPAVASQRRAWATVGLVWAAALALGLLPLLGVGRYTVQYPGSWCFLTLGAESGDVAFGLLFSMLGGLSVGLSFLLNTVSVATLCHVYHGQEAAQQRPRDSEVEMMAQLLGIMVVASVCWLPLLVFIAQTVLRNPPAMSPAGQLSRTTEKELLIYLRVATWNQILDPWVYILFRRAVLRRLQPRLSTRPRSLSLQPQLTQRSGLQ
Sequence of thromboxane A2 receptor (TBXA2R) (Gα13) (Q14344 whole entry partner, species assumed): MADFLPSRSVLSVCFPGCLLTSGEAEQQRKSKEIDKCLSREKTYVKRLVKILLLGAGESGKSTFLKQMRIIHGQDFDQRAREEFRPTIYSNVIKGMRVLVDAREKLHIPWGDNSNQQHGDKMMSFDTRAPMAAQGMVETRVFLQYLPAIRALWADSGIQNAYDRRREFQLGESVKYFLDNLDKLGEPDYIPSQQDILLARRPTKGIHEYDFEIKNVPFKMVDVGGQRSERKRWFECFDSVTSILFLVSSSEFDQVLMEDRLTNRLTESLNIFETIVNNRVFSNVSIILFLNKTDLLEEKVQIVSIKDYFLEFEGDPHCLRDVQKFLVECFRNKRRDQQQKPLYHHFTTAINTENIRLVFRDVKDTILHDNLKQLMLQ
Sequence of thromboxane A2 receptor (TBXA2R) (Gα13) (P16520 whole entry partner, species assumed): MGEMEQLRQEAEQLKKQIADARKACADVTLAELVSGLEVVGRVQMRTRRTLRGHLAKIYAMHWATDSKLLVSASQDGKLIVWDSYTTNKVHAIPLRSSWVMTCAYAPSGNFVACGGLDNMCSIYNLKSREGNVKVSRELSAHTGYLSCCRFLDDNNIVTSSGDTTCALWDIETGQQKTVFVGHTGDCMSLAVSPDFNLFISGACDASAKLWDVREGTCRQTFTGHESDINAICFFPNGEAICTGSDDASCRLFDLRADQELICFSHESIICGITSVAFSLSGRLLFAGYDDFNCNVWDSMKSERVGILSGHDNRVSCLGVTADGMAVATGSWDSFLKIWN
Sequence of thromboxane A2 receptor (TBXA2R) (Gα13) (O14610 1-66 partner limits assumed, species assumed): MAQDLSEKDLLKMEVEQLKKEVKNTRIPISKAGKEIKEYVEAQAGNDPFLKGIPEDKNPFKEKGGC

Mean (plotted), G protein dissociation BRET² signal ([1]; concentration 300 pM): -0.002664
Mean (plotted), G protein dissociation BRET² signal ([1]; concentration 1e-9 M): -0.001942
Mean (plotted), G protein dissociation BRET² signal ([1]; concentration 3e-9 M): -0.0001851
Mean (plotted), G protein dissociation BRET² signal ([1]; concentration 1e-8 M): 0.008857
Mean (plotted), G protein dissociation BRET² signal ([1]; concentration 3e-8 M): 0.0122
Mean (plotted), G protein dissociation BRET² signal ([1]; concentration 1e-7 M): 0.01041
Mean (plotted), G protein dissociation BRET² signal ([1]; concentration 3e-7 M): 0.01174
Mean (plotted), G protein dissociation BRET² signal ([1]; concentration 1e-6 M): 0.01712
Mean (plotted), G protein dissociation BRET² signal ([1]; concentration 3e-6 M): 0.01801
Mean (plotted), G protein dissociation BRET² signal ([1]; concentration 1e-5 M): 0.01748
Mean (plotted), G protein dissociation BRET² signal ([1]; concentration 3e-5 M): 0.01231
ΔBRET² ratio (Mean) (wt GPR55 (Gα12); 3e-10 M): 0.009016
ΔBRET² ratio (Mean) (wt GPR55 (Gα12); 1e-9 M): 0.003569
ΔBRET² ratio (Mean) (wt GPR55 (Gα12); 3e-9 M): -0.002484
ΔBRET² ratio (Mean) (wt GPR55 (Gα12); 1e-8 M): -0.008889
ΔBRET² ratio (Mean) (wt GPR55 (Gα12); 3e-8 M): -0.006497
ΔBRET² ratio (Mean) (wt GPR55 (Gα12); 1e-7 M): -0.00961
ΔBRET² ratio (Mean) (wt GPR55 (Gα12); 3e-7 M): -0.01427
ΔBRET² ratio (Mean) (wt GPR55 (Gα12); 1e-6 M): -0.01536
ΔBRET² ratio (Mean) (wt GPR55 (Gα12); 3e-6 M): -0.01786
ΔBRET² ratio (Mean) (wt GPR55 (Gα12); 1e-5 M): -0.02016
ΔBRET² ratio (Mean) (wt GPR55 (Gα12); 3e-5 M): -0.02115
SMILES: Cc1cccc(N2CCN(C(=O)c3cc(S(=O)(=O)N(C)C)ccc3N3CCCC3)CC2)c1C [ML184, 3-[[4-(2,3-dimethylphenyl)-1-piperazinyl]carbonyl]-N,N-dimethyl-4-(1-pyrrolidinyl)benzenesulfonamide]

Efficacy ± SEM (%) ([1]; TBXA2, Gα13): 100 ± 2%
pEC50 ± SEM ([1]; TBXA2, Gα13): 9.03 ± 0.11
EC50 ([1]; TBXA2R via Gα13, read-out: potency (EC50)): 0.93 nM
Mean (plotted), G protein dissociation BRET² signal ([1]; concentration 10 pM): 0.004083
Mean (plotted), G protein dissociation BRET² signal ([1]; concentration 30 pM): 0.00585
Mean (plotted), G protein dissociation BRET² signal ([1]; concentration 300 pM): -0.03967
Mean (plotted), G protein dissociation BRET² signal ([1]; concentration 1e-9 M): -0.07222
Mean (plotted), G protein dissociation BRET² signal ([1]; concentration 3e-9 M): -0.103
Mean (plotted), G protein dissociation BRET² signal ([1]; concentration 3e-8 M): -0.1326
Mean (plotted), G protein dissociation BRET² signal ([1]; concentration 3e-7 M): -0.1394
Mean (plotted), G protein dissociation BRET² signal ([1]; concentration 1e-6 M): -0.1409
G protein activation at GPR55-transfected cells (in words) (wt GPR55 (Gα12); wt GPR55, Gα12): inactive
SMILES: CCCCC[C@H](O)/C=C/[C@@H]1[C@@H](C/C=C\CCCC(=O)O)[C@H]2CO[C@@H]1C2 [U-46619]
